This is an account of results in patent US20230183243A1, “HETEROARYL DERIVATIVES AND PHARMACEUTICAL COMPOSITION COMPRISING SAME AS ACTIVE INGREDIENT” (VORONOI INC., priority 2019, published 2023).

In one assay the test system is BxPC3. Nature of the assay: Cell proliferation inhibition, carcinomas other than TNBC. In kind it is cell-based. Particulars: Homo sapiens, BXPC-3. The method, then: (§1) To check an ability to inhibit the growth of (MDA-MB-231) cells in two triple-negative breast cancer cell lines, a test was performed, as follows. Cells were seeded in 180 μL of a culture broth at a density of 2,000 to 3,000 cells/well in a white clear bottom 96-well plate (Corning) according to the growth ability of each cell, and then cultured for 24 hours under conditions of 5% CO2 and 37° C. Thereafter, the compound was prepared by diluting a 10 mM stock solution three-fold with 100% DMSO at a total of 12 concentrations so that a peak concentration of the compound was in a range of 10 mM to 0.05 μM, and the diluted compound was then diluted in each cell culture medium so that a final concentration of the compound was in a range of 100 μM to 0.5 nM. 20 μL of a diluted solution diluted with a medium was added to the cell solution in which cells were seeded in the 96-well plate on the previous day so that a final concentration of the diluted solution was in a range of 10 μM to 0.05 nM. Each of the cells was cultured for 5 days. To check cell viability, a mixture provided in a CellTiter-Glo® Luminescent Cell Viability Assay Kit (Promega) was added to each of the cultured cell media, and cultured for another 10 minutes under a condition of 37° C. Then, a degree of luminescence (fluorescence) was measured. A degree of inhibition of the cell growth according to the treatment concentration of each of the compounds was calculated based on the fluorescence of the solvent control cells which were not treated with the compound. In this case, the concentration of each of the compounds inhibiting 50% of the cell growth was determined to be a GI50 (nM) value, and calculated using Prism (Version 7.01; GraphPad) software.
(§2) Next, the activities of the Example compounds against various types of carcinomas other than the TNBC were evaluated in a similar manner as described above. In the following table, the following active value range (GI50 (nM)) was used to evaluate cell proliferation inhibitory activity.

The next assay deals with DU145. Described as above. The format is cell-based. Particulars: Homo sapiens, DU-145. Here is the method:
as §1, §2

Another assay has as its system HCT116. The description is as above. In kind it is cell-based. Particulars: Homo sapiens, HCT-116. The method, then: as §1, §2
The subject of another assay is A549. Described as above. The conditions noted are these: Homo sapiens. The format is cell-based. The method, then:
as §1, §2

The target in a further assay is T1, AAK1 (Homo sapiens, UniProt Q2M2I8).
T1 construct: purchased DiscoverX Corp. ScanMAX Kinase panel
Nature of the assay: ScanMAX Kinase panel (DiscoverX). In kind it is binding. The conditions noted are these: read-out: % Cont @ 1 μM. Here is the method:
(§3) Further, to evaluate the inhibitory activity of the compound according to the present invention against more enzymes, an experiment was performed as follows. Specifically, the enzyme (kinase) selectivity of the compound of Example 64 selected from the Example compounds of the present invention was measured by commissioning DiscoverX Corp., and an experiment was performed using a panel for ScanMAX™ Kinase analysis. In this case, the concentration of a drug treated with the enzyme was set at 1 μM in DMSO, and the percent control (% control) were defined in the same manner as in the following Expression 1.
(§4) (Example compound−Positive control)/(Negative control−Positive control)×100 [Expression 1]
(§5) Wherein the positive control represents a compound having a percent control of 0%, and the negative control represents a compound having a percent control of 100% in DMSO. For the enzyme selectivity of the present invention, the compound was also judged to have activity against the corresponding enzyme when the percent control for each of the enzymes was <35% (i.e., less than 35%).

The target in a further assay is T2, SBK1 (Homo sapiens, UniProt Q52WX2).
T2 construct: purchased DiscoverX Corp. ScanMAX Kinase panel
Briefly: ScanMAX Kinase panel (DiscoverX). Particulars: read-out: % Cont @ 1 μM. The format is binding. The method, then: as §3, §4, §5

A further assay concerns the target T3, KIT(V559D, V654A) (Homo sapiens, UniProt P10721, V559D/V654A).
T3 construct: purchased DiscoverX Corp. ScanMAX Kinase panel
Briefly: ScanMAX Kinase panel (DiscoverX). The format is binding. Particulars: read-out: % Cont @ 1 μM. The method, then: as §3, §4, §5

Assay [1] addresses T4, TYK2(JH1domain-catalytic) (Homo sapiens, UniProt P29597).
T4 construct: TYK2(JH1domain-; purchased DiscoverX Corp. (ScanMAX Kinase panel, commissioned)
Nature of the assay: ScanMAX Kinase panel (DiscoverX). In kind it is binding. The method, then: as §3, §4, §5

The target in a further assay is T5, MEK4 (Homo sapiens, UniProt P45985).
T5 construct: purchased DiscoverX Corp. ScanMAX Kinase panel
Briefly: ScanMAX Kinase panel (DiscoverX). The format is binding. Particulars: read-out: % Cont @ 1 μM. The method, then: as §3, §4, §5

The target of a further assay is T6, YSK4 (Homo sapiens, UniProt Q56UN5).
T6 construct: purchased DiscoverX Corp. (ScanMAX Kinase panel, commissioned)
T6 sequence (Q56UN5 whole entry): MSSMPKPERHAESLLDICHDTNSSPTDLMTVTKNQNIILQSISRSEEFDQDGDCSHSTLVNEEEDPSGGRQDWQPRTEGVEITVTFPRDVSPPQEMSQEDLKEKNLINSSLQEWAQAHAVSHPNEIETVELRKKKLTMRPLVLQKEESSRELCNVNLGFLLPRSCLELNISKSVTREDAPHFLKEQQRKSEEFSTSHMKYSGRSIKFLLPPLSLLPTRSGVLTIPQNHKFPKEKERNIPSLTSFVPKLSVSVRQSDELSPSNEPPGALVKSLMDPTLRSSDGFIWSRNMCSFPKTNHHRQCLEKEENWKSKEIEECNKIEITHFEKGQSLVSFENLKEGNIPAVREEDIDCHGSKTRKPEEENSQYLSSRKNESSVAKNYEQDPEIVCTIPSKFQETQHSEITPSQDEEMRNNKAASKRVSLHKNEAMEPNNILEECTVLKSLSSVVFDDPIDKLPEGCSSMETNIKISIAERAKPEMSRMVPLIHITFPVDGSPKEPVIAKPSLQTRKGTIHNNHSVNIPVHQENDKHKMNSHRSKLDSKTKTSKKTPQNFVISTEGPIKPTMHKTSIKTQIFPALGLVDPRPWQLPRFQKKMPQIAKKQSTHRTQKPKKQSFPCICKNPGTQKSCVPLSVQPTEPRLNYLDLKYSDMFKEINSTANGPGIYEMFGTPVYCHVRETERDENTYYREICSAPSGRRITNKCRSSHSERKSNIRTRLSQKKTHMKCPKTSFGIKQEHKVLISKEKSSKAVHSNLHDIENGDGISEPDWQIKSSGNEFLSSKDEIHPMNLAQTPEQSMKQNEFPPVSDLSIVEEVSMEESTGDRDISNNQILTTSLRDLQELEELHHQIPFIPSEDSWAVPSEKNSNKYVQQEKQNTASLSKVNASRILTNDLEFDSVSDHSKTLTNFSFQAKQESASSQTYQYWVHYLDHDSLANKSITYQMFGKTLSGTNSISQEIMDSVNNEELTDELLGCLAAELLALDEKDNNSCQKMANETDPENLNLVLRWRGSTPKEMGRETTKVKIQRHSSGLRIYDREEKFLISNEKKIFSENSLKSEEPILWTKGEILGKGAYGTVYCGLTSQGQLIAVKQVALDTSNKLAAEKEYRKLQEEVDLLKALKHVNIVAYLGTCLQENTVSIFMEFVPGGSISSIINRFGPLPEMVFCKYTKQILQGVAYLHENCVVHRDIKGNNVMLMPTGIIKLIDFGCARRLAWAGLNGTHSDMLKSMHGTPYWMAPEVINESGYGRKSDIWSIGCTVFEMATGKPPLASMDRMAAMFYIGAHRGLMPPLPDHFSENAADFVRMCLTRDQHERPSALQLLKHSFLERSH
Briefly: ScanMAX Kinase panel (DiscoverX). The conditions noted are these: read-out: % Cont @ 1 μM. The format is binding. Here is the method: as §3, §4, §5

For another assay, the target named is T7, CAMK2D (Homo sapiens, UniProt Q13557).
T7 construct: purchased DiscoverX Corp. ScanMAX Kinase panel
Briefly: ScanMAX Kinase panel (DiscoverX). In kind it is binding. The conditions noted are these: read-out: % Cont @ 1 μM. The method, then:
as §3, §4, §5

For another assay, the target named is T8, CSNK1D (Homo sapiens, UniProt P48730).
T8 construct: purchased DiscoverX Corp. ScanMAX Kinase panel
Nature of the assay: ScanMAX Kinase panel (DiscoverX). Particulars: read-out: % Cont @ 1 μM. In kind it is binding. The method, then: as §3, §4, §5

In assay [2] the target is T9, RSK2(Kin.Dom.1-N-terminal) (Homo sapiens, UniProt P51812).
T9 construct: RSK2(Kin.Dom.1-; purchased DiscoverX Corp. (ScanMAX Kinase panel, commissioned)
Briefly: ScanMAX Kinase panel (DiscoverX). In kind it is binding. The conditions noted are these: read-out: % Cont @ 1 μM. The method, then: as §3, §4, §5

A further assay addresses T10, PKN2 (Homo sapiens, UniProt Q16513).
T10 construct: purchased DiscoverX Corp. ScanMAX Kinase panel
Briefly: ScanMAX Kinase panel (DiscoverX). In kind it is binding. The conditions noted are these: read-out: % Cont @ 1 μM. The method, then:
as §3, §4, §5

For another assay, the target named is T11, SNARK (Homo sapiens, UniProt Q9H093).
T11 construct: purchased DiscoverX Corp. (ScanMAX Kinase panel, commissioned)
T11 sequence (Q9H093 whole entry): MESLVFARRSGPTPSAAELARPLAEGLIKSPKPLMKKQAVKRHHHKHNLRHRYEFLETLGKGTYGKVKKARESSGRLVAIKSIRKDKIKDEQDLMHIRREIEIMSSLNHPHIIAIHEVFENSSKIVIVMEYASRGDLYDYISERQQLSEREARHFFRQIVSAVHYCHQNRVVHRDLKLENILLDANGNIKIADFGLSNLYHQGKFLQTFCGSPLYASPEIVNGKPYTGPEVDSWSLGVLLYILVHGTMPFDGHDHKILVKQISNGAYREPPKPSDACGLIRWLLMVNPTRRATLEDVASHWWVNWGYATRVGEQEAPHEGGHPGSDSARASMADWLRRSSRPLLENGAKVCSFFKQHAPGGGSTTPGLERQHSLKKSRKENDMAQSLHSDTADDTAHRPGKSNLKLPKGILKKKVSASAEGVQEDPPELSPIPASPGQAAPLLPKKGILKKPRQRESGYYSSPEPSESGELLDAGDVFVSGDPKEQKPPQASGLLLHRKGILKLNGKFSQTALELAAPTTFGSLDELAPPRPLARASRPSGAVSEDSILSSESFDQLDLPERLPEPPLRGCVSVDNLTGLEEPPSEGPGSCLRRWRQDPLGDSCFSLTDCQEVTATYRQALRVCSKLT
Nature of the assay: ScanMAX Kinase panel (DiscoverX). The format is binding. The method, then: as §3, §4, §5

The next assay has as its system FLT3(ITD, D835V). Briefly: ScanMAX Kinase panel (DiscoverX). The format is binding. Here is the method:
as §3, §4, §5

In another assay the test system is FLT3(ITD). Briefly: ScanMAX Kinase panel (DiscoverX). The format is binding. Here is the method: as §3, §4, §5
A further assay concerns the target T12, GAK (Homo sapiens, UniProt O14976).
T12 construct: purchased DiscoverX Corp. ScanMAX Kinase panel
Nature of the assay: ScanMAX Kinase panel (DiscoverX). In kind it is binding. The conditions noted are these: read-out: % Cont @ 1 μM. The method, then: as §3, §4, §5

The next assay concerns the target T13, CAMKK1 (Homo sapiens, UniProt Q8N5S9).
T13 construct: purchased DiscoverX Corp. (ScanMAX Kinase panel, commissioned)
Nature of the assay: ScanMAX Kinase panel (DiscoverX). In kind it is binding. Particulars: read-out: % Cont @ 1 μM. Here is the method: as §3, §4, §5

A further assay deals with T14, PRKCE (Homo sapiens, UniProt Q02156).
T14 construct: purchased DiscoverX Corp. (ScanMAX Kinase panel, commissioned)
T14 sequence (Q02156 whole entry): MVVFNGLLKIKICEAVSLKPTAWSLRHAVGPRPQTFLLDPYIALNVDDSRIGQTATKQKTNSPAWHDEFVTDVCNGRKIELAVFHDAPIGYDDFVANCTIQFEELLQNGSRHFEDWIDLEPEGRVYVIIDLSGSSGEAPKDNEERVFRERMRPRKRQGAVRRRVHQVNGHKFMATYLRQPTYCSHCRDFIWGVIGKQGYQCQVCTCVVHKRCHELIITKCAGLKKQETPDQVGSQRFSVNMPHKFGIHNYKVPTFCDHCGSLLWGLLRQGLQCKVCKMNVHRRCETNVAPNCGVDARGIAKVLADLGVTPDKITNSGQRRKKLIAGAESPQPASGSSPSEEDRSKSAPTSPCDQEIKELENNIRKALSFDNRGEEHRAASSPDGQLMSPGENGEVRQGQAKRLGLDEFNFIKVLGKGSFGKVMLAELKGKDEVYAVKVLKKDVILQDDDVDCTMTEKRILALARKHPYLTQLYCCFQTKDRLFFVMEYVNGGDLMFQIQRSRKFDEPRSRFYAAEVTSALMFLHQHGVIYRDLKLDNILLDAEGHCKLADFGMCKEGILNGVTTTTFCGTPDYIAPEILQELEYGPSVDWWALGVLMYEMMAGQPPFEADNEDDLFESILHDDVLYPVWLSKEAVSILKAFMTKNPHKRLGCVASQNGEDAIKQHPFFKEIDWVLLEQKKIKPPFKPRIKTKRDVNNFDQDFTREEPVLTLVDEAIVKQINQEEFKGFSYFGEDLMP
Nature of the assay: ScanMAX Kinase panel (DiscoverX). In kind it is binding. The conditions noted are these: read-out: % Cont @ 1 μM. Here is the method:
as §3, §4, §5

In the next assay the target is T15, CSNK1E (Homo sapiens, UniProt P49674).
T15 construct: purchased DiscoverX Corp. ScanMAX Kinase panel
Nature of the assay: ScanMAX Kinase panel (DiscoverX). The conditions noted are these: read-out: % Cont @ 1 μM. In kind it is binding. Here is the method: as §3, §4, §5

T3 sequence (P10721 26-976 V559D/V654A): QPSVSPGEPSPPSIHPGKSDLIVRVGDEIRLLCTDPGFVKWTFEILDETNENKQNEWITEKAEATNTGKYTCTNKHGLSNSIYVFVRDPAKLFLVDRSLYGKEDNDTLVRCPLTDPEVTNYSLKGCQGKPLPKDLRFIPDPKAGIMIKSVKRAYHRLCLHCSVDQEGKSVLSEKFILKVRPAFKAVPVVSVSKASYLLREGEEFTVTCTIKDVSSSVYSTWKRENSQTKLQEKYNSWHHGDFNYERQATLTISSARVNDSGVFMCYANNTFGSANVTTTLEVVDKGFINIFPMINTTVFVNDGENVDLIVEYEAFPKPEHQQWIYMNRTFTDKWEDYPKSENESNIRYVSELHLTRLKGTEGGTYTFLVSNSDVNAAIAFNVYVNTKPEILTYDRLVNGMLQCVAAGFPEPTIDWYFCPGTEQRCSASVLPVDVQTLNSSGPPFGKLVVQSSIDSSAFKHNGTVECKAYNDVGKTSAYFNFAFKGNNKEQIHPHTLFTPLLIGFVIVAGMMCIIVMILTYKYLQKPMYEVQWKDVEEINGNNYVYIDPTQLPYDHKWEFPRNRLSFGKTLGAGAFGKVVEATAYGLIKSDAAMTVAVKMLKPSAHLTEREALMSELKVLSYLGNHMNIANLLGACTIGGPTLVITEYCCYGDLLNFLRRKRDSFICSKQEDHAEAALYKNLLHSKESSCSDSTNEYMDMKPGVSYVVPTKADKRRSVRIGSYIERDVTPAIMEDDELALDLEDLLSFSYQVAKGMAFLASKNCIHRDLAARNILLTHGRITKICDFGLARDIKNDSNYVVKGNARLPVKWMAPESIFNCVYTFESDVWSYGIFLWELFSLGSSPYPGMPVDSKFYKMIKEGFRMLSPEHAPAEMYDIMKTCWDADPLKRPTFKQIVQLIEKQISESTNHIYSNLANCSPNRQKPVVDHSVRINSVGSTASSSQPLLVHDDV
T10 sequence (Q16513 whole entry): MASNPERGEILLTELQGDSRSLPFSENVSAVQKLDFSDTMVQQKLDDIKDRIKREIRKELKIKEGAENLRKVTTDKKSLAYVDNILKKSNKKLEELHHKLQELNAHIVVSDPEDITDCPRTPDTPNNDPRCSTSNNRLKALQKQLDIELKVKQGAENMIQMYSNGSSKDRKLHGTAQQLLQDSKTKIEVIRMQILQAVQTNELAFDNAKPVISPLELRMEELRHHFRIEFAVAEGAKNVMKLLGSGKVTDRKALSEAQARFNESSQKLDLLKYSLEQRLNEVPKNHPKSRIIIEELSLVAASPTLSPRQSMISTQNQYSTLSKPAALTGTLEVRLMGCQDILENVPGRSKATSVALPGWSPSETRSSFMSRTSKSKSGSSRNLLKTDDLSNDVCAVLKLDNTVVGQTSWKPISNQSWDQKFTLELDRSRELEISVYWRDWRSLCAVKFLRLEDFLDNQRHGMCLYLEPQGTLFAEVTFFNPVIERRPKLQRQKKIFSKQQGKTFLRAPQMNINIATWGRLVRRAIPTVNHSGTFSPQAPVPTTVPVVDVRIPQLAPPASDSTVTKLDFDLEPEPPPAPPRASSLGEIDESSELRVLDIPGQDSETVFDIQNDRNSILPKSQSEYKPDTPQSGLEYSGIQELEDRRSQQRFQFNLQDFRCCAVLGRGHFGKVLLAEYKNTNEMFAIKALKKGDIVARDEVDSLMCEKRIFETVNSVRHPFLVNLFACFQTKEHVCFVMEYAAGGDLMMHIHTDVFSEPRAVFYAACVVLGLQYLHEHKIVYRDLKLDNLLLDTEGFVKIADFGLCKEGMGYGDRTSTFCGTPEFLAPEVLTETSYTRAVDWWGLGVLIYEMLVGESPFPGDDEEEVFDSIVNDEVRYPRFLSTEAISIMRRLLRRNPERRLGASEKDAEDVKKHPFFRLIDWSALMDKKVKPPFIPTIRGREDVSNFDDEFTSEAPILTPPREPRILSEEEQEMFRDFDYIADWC
T4 sequence (P29597 897-1176 limits assumed): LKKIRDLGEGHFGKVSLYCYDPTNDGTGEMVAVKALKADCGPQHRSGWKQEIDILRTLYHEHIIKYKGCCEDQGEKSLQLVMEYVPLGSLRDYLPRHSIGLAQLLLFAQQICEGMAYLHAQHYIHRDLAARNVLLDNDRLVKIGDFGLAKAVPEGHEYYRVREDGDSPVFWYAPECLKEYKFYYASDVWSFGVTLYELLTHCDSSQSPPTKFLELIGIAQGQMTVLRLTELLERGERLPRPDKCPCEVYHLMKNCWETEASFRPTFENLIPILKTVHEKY

As for `COc1cc(N2CCCC2=O)ccc1Nc1cc(NC2CCCCC2)c2c(C#N)c[nH]c2n1` [Example 64, 4-(cyclohexylamino)-6-((2-methoxy-4-(2-oxopyrrolidin-1-yl)phenyl)amino)-1H-pyrrolo[2,3-b] pyridine-3-carbonitrile], the GI50 in the assay on BxPC3, in the assay on DU145, in the assay on HCT116 and in the assay on A549 was less than 100 nM in each case. In addition, the remaining binding at 1 µM was 4.4% at AAK1; 5.7% on SBK1; 14% on KIT(V559D, V654A); 27% on MEK4; 1.9% in [2]; 28% at PKN2. The remaining binding at 1 µM was determined as 4.4% on GAK, 1.6% at CAMKK1 and 24% at CSNK1E. Further, the “% Cont @ 1 μM” value in assay [1] came out at 1.7%; on SNARK, 0%; with FLT3(ITD, D835V) it was 1.2%; with FLT3(ITD), 17%. In addition, the percent of control binding at 1 µM on YSK4 came to 0.3%; on PRKCE, 1.4%. Moreover, the percent of control at 1 µM is 12% at CAMK2D and 19% on CSNK1D.

As a reminder, the GI50 is the concentration giving 50% growth inhibition.
